Source: patent publication US12158464B2, “Methods for modeling disease tissue using three-dimensional tissue systems” (priority 2013, dated 2024)

Key:
hESC-CM biowires (Hes2) [1] = assay type: cell-based, human
Experimental: After preculture for 7 days, biowires were randomly transferred to 6-well plates and cultured in StemPro-34 media in the absence or presence of Isoproterenol (100 nM), Angiotensin II (200 nM [17]) or Endothelin-1 (150 nM)(Sigma) for 7 days. This protocol was chosen to replicate the chronic treatment of mice as described. […] Isolated single cells were seeded on Matrigel-coated glass cover slips before cell area and calcium transient measurements were performed. Immunostaining and Fluorescence Microscopy. Immunostaining was performed using the following antibodies: mouse anti-cTNT (1:100, Thermo Scientific; MS-295-P1), mouse anti-α-actinin (1:200, Abcam, ab9465), anti-mouse-Alexa Fluor 488 (1:400, Invitrogen, A21202), anti-rabbit-TRITC (1:400, Invitrogen, 81-6114). DAPI was used to counterstain nuclei. Phalloidin Alexa Fluor 660 (1:1000, Invitrogen, A22285) was used to detect actin fibers. The stained cells were visualized using a fluorescence microscope (Leica CTR6000) and images captured using the Leica Application Suite software. For confocal microscopy cells were visualized using a fluorescence confocal microscope (Zeiss LSM-510). Transmission Electron Microscopy (TEM). Tissue was fixed with 4% Paraformaldehyde, 1% Glutaraldehyde in 0.1 M PBS for at least 1 hr and washed 3 times with PBS pH 7.2. Post-fixation was done with 1% Osmium Tetraoxide in 0.1 M PBS, pH 7.2 for 1 hr and dehydrated using ethanol series from 25 to 100%. Tissue was infiltrated using Epon resin and polymerized in plastic dishes at 40° C. for 48 hr. Tissue was stained with Uranyl Acetate and Lead Citrate after sectioning. Imaging was performed at Hitachi H-7000 transmission electron microscope.

[2] = tested on: hESC-derived CMs 3D tissues; assay type: cell-based, human
Experimental: Alternatively, to measure the force generated by the 3D engineered cardiac tissues, a bioreactor consisting of a PDMS tissue chamber capable of housing 8 micotissues was employed. […] Briefly, each well of the PDMS chamber had two posts which served as anchoring points for each cardiac tissue during gel compaction. Furthermore, by tracking a post's deflection, the force of contraction a cardiac tissue generated was determined. Cardiac tissues underwent 7 days of pre-culture followed by 7 days of treatment with endothelin-1, angiotensin II or isoproterenol. After the treatment, the contractile force of each cardiac tissue was determined by video recording, one at a time, the top surface of a post for each cardiac tissue while being paced at 0.5 or 1 Hz using CellSens software (Olympus). Each video was then exported as a series of Tiff images and opened in ImageJ. […] Using the method of superposition for a cantilever beam-partial uniform deflection, a point force was calculated and then normalized to the tissues cross sectional area (assumed circular) to determine the cardiac force per area.

[3] = tested on: human cardiac tissue strands (hESC, Hes2 derived cardiomyocytes); test: Biorod drug testing: tissue beating pattern and contractile force by polymer wire deflection; assay type: cell-based; conditions: for response of human cardiac tissues to well-known drugs: summary statement
Experimental: Cardiomyocytes were derived from human embryonic stem cell lines (hESC, Hes2). Embryoid bodies (EBs) were differentiated to the cardiovascular lineage and disassociated as previously described in Device 1 Methods. Before cell seeding, micro-well surface was rinsed with 5% (w/v) Pluronic Acid (Sigma P2443) and then air dried in the bio-safety cabinet. hESC derived cardiomyocytes were suspended at 200 million/ml (unless specified otherwise) in Collagen Type I based gel (3.0 mg/ml of rat tail collagen type I (BD Biosciences) neutralized by 1N NaOH and 10×M199 media as described by the manufacturer) with the supplements of […], 1% (v/v) HEPES, 10% (v/v) Matrigel (BD Biosciences), and […]. Suspended cardiomyocytes were then seeded into the cell culture channel (2.5 μl per well). After 30 min incubation at 37° C. to induce the gelation, appropriate media were added. After seeding, cells were kept in culture for 7 days to allow collagen matrix remodeling and assembly around the wires. Cardiac tissue strands were kept in culture for up to 21 days with media change every 2-3 days. Preferably, the tissue strands should be kept in culture for at least 2 weeks to allow for maturation; however there is no limitation on the maximum culture duration. Cardiac tissue strands were seeded to observe the stability and reproducibility of tissue in long term culture. After seeding, brightfield images (see FIG. 39A for an example) of the tissue strands were taken every day (n=3 per group) using optical microscope (Olympus CKX41) and the diameters of the tissue strands at four distinct locations were analyzed with imageJ (see FIG. 39B for an example). Tissue strand lengths were also analyzed with same method.
Tissue contractile behavior tracing and measurement was carried out. POMac is auto-fluorescent at a wide range of wavelenths; therefore the wires were imaged with a fluorescence microscope under DAPI channel (e.g. 461 nm wavelength) to trace the bending movements of the wires. The POMac is auto-fluorescent at a wide range of wavelengths, including under FITC and Tritc channels. Images were taken at 25 frames per second (fps) (see FIG. 39C). Image sequences were analyzed with ImageJ software using tracking plugin. To calculate the forces originated from cardiac tissues, beam deflection formula with uniformly distributed load in the middle section was used here. […] The engineered cardiac tissues were paced at 2 Hz frequency. From this image sequence, contraction and relaxation time of beating can be estimated. […] Tissue stretching wires can be considered uniformly distributed Load, Wo (Load per force bearing length), which can be calculated with displacement of center point of wires in image sequence, and F can be calculated as well. […] Briefly, entire beam length was L. Section of wire with tissue wrapping around it was experiencing load. Here, the load was assumed to be evenly distributed throughout this section, and Wo was load per length. […] The distance between side of the tissue and a well wall is a, which was assumed equal for both sides. The deflection at center point was y.
Drug testing was carried out.

[4] = tested on: Hes2 hESC-derived cardiomyocyte tissue strands; conditions: Hes2 hESC-cardiomyocyte tissue strand; DI-4-ANEPPS imaging
Experimental: For human cardiac tissue strands, day 20 EBs generated as described above were incubated in collagenase type I (1 mg/ml; Sigma) and DNAse (1 mg/ml, CalBiochem) in Hank's Balanced Salt Solution (NaCl, 136 mM; NaHCO3, 4.16 mM; Na3PO4, 0.34 mM; KCl, 5.36 mM; KH2PO4, 0.44 mM; dextrose, 5.55 mM; HEPES, 5 mM) for 2 hr at 37° C. EBs were centrifuged (800 r.p.m., 5 min), incubated with trypsin (0.25%, Gibco) for 5 min at 37° C. and pipetted gently to dissociate the cells. After dissociation, cells were centrifuged (1,000 r.p.m., 5 min), counted and seeded at 0.5×10^6 cells/strand of 0.5 cm in length. This ratio was maintained for generation of longer tissue strands. […]
For optical mapping, tissue strands were incubated with a voltage sensitive dye (Di-4-ANEPPS 5 μM, Invitrogen) for 20 min at 37° C. in warm Tyrode's solution (NaCl 118 mM, KCl, 4.7 mM, CaCl2 1.25 mM, MgSO4 0.6 mM, KH2PO4 1.2 mM, NaHCO3 25 mM, glucose 6 mM; oxygenated by bubbling carbogen 95% O2, 5% CO2 for at least 20 minutes shortly before use). Dye fluorescence was recorded on a MVX-10 Olympus fluorescence microscope equipped with a high-speed CMOS camera (Ultima-L, Scimedia)^29-30. […] The fluorescence was excited using a mercury arc source (X-Cite Exacte) with green filter (Olympus U-MWIG2 filter cube). […]

[5] = tested on: endothelialized AngioChip human cardiac tissue; conditions: 10 μM perfused through built-in vasculature, within 30 min
Experimental: Cardiac drug test. On day 7 of culture, the spontaneous contractions of the cardiac tissues were recorded as bright-field videos. […] After 30 min incubation, the spontaneous contractions of the cardiac tissues were recorded again as bright-field videos. The frequency of contraction was analyzed from the recorded videos with image J. DMSO was used to dissolve the drugs. The final concentration of DMSO in the culture media was diluted to less than 0.1% (v/v).

[6] = tested on: hESC-derived cardiomyocytes (Hes2 cell line); test: Calcium transient measurements in single cardiomyocytes dissociated from tissue strands; assay type: cell-based, human
Experimental: Calcium transient measurements were taken. Tissue strands were dissociated by incubation with collagenase and trypsin as described in detail above. The dissociated cardiomyocytes were plated onto growth factor free Matrigel (diluted 1:60 in RPMI media)-coated 25-mm microscope glass coverslips overnight. Cells were then incubated with 5 μM of fluo-4 acetoxymethyl ester (fluo-4 AM) in culture media for 2 hours at 37° C. Subsequently, cardiomyocytes were washed twice with dye-free medium and placed back into the incubator for 30 min. A laser scanning confocal microscope (Zeiss LSM 510) was used to measure the fluorescence intensity of fluo-4 AM. The coverslips containing the fluo-4 AM-loaded cardiomyocytes were moved onto a special chamber and tightly secured. Approximately 1.8-1.9 ml of culture medium was added into the chamber, which was placed on a temperature controlled-plate (37° C.) on the microscope. Fluo-4 was excited via an argon laser (488 nm) and emitted fluorescence was collected through a 505 nm emission filter. Changes in fluo-4 AM fluorescence intensity, which indicates transient fluctuation of cytosolic calcium concentration, were recorded in frame and line scan model. The images and fluorescence data were acquired through Zeiss software. The fluorescence data were analyzed with Origin 8.5 software. Fluorescence signals (F) were normalized to baseline fluorescence after loading fluo-4 AM. The rising phase of the signals was fitted by linear model while the decaying phase of the signals was fitted by ExpDecay with Offset model. Caffeine, Verapamil (Sigma) and Thapsigargin (Invitrogen) were directly added into the chamber that contained the cardiomyocytes during imaging at concentrations indicated in the figures.

hESC-CM biowires (Hes2) [7] = test: Chronic drug exposure of biowires: quantitative RT-PCR of fetal gene program; assay type: cell-based, human; conditions: 7 days treatment: ISO 100 nM, Et-1 150 nM, AngII 200 nM; vs untreated control
Experimental: (§1) After preculture for 7 days, biowires were randomly transferred to 6-well plates and cultured in StemPro-34 media in the absence or presence of Isoproterenol (100 nM), Angiotensin II (200 nM [17]) or Endothelin-1 (150 nM)(Sigma) for 7 days. This protocol was chosen to replicate the chronic treatment of mice as described. […] Isolated single cells were seeded on Matrigel-coated glass cover slips before cell area and calcium transient measurements were performed.
Quantitative RT-PCR. RT-PCR was performed as previously described. Total RNA was prepared with the High Pure RNA Isolation Kit (Roche) and treated with RNase-free DNase (Roche). RNA was reverse transcribed into cDNA using random hexamers and Oligo (dT) with SuperScript VILO (Invitrogen). RT-qPCR was performed on a LightCycler 480 (Roche) using LightCycler 480 SYBR Green I Master (Roche). Expression levels were normalized to the housekeeping genes TATA box binding protein (TBP) or Glyceraldehyde 3-phosphate dehydrogenase (GAPDH).

hESC-CM biowires (Hes2) [8] = test: Chronic drug exposure: ELISA of soluble BNP in conditioned media; assay type: cell-based, human
Experimental: as §1, with “performed. ELISA. Quantification of soluble BNP from the conditioned media was performed using commercially available ELISA kits.” for “performed.”

[9] = tested on: Hes2 hESC derived cardiomyocytes; assay type: cell-based, human; conditions: single cells dissociated at end of 7 days treatment, cardiac troponin T staining
Experimental: as §1

## CC[C@H](C)[C@H](NC(=O)[C@H](Cc1ccc(O)cc1)NC(=O)[C@@H](NC(=O)[C@H](CCCNC(=N)N)NC(=O)[C@@H](N)CC(=O)O)C(C)C)C(=O)N[C@@H](Cc1cnc[nH]1)C(=O)N1CCC[C@H]1C(=O)N[C@@H](Cc1ccccc1)C(=O)O [AngII, angiotensin II]
hESC-CM biowires (Hes2) [1]
  contractile apparatus (transmission electron microscopy): significant absence of distinct Z-disks and the lack of a defined sarcomere structure
[2]
  force of contraction: significantly reduced force of contraction

## Cc1cccc(CCN2CCC(C(=O)c3ccc(NS(C)(=O)=O)cc3)CC2)n1 [E4301]
[3]
  response of human cardiac tissues to well-known drugs: responded appropriately

## CNC[C@H](O)c1ccc(O)c(O)c1 [Epinephrine, epinephrine]
[4]
  spontaneous beating frequency: increasing spontaneous beating frequency
[5]
  chronotropic response (frequency of spontaneous contraction): positive chronotropic response

## NC[C@H](O)c1ccc(O)c(O)c1 [Norepinephrine]
[3]; 10 μM
  beating frequency: significant increased beating frequency
[3]
  response of human cardiac tissues to well-known drugs: responded appropriately

## Cn1c(=O)c2c(ncn2C)n(C)c1=O [caffeine]
[6]; cells from 6 Hz tissue strands, after verapamil or nifedipine
  effect of caffeine added post blockage of L-type Ca2+ channels: Ca^2+ release into the cytosol
[6]; electrically stimulated cells vs non-stimulated controls, caffeine 5 mM
  Ca2+ transient amplitude intensity in response to caffeine: significantly higher amplitude intensity
[6]; single cells from electrically stimulated tissue strands, 3 and 6 Hz conditions
  response of cytosolic Ca2+ to caffeine: inducing an increase in cytosolic Ca^2+
[6]; single cells from non-stimulated control tissue strands
  response of cytosolic Ca2+ to caffeine: none of the hESC-cardiomyocytes in non-stimulated controls were responsive

## C[C@H]1O[C@@H](O[C@H]2[C@@H](O)C[C@H](O[C@H]3[C@@H](O)C[C@H](O[C@H]4CC[C@@]5(C)[C@H](CC[C@@H]6[C@@H]5C[C@@H](O)[C@]5(C)[C@@H](C7=CC(=O)OC7)CC[C@]65O)C4)O[C@@H]3C)O[C@@H]2C)C[C@H](O)[C@@H]1O [digoxin]
[5]
  chronotropic response (frequency of spontaneous contraction): negative chronotropic response

## C/C=C(/C)C(=O)O[C@H]1C(C)=C2[C@H]([C@@H]1OC(=O)CCCCCCC)[C@@](C)(OC(C)=O)C[C@H](OC(=O)CCC)[C@@]1(O)[C@H]2OC(=O)[C@@]1(C)O [thapsigargin]
[6]; cells from 6 Hz tissue strands
  calcium transients after blockage of SERCA: cessation of calcium transients with time

## COc1ccc(CCN(C)CCCC(C#N)(c2ccc(OC)c(OC)c2)C(C)C)cc1OC (stereo not drawn) [verapamil]
[6]; cells from 6 Hz tissue strands
  Ca2+ transients after blockage of L-type Ca2+ channels: cessation in Ca^2+ transients

## endothelin-1 [Et-1]
hESC-CM biowires (Hes2) [1]
  contractile apparatus (transmission electron microscopy): significant absence of distinct Z-disks and the lack of a defined sarcomere structure
hESC-CM biowires (Hes2) [7]
  ANF and BNP gene expression (fetal gene program): no changes in gene expression
hESC-CM biowires (Hes2) [8]; chronic treatment
  BNP in the conditioned media: BNP can also be found in the conditioned media
hESC-CM biowires (Hes2) [8]; day 2 post-treatment, media conditioned for 48 h
  increase in the secretion of BNP: 5 fold
hESC-CM biowires (Hes2) [8]; day 7, media conditioned for 24 h
  increase of BNP in the media: 7 fold
[9]
  increase in cell size: 100%
[2]
  force of contraction: significantly reduced force of contraction
